Reference: patent US10668028B2, “Methods and use of inducing apoptosis in cancer cells” (Berg LLC, priority 2008, dated 2020)

Tests used:
[1] = system: Bcl-2 protein; conditions: melanoma; cited from earlier work
[2] = system: human melanoma tumors; experiment: histopathology analysis of human melanoma (Skmel-28) tumors induced in nude athymic mice; format: in vivo; conditions: topical application for 30 days, H & E or S-100 stain
Method: Skmel-28 cells were grown in 5% serum supplemented DMEM/F12 medium to 80% confluency. The cells were trypsinized and pelleted using a centrifuge. The pellets were then resuspended in cold PBS. The subjects for this study were nude athymia mice. Each subject received two injections of the cell suspension on the dorsal region of the mouse. After a visual assessment of the establishment of a tumor, treatment with a topical application would commence. After 30 days of treatment, the tumors were excised from the mice and placed in formalin. Each tumor sample was embedded in paraffin and sliced using a microtome. The slides underwent an H & E or S-100 stain. These samples were than analyzed by a pathologist to assess the vascular integrity of the tumor.

Q: What does the source list for COC1=C(OC)C(=O)C(C/C=C(\C)CC/C=C(\C)CC/C=C(\C)CC/C=C(\C)CC/C=C(\C)CC/C=C(\C)CC/C=C(\C)CC/C=C(\C)CC/C=C(\C)CCC=C(C)C)=C(C)C1=O [CoQ10, 2,3-dimethoxy-5-methyl-6-decaprenyl-1,4-benzoquinone]?
A: Bcl-2 protein level [1]: downregulation of the Bcl-2 protein; tumor pathology / vascular integrity of the tumor [2]: disruption in tumor vasculature
